This is an account of results in US20100249179A1, “Farnesoid X Receptor Agonists” (SMITHKLINE BEECHAM CORPORATION, priority 2007, published 2010).

For one assay, the target named is T1, Human FXRα Ligand Binding Domain (Homo sapiens, UniProt Q96RI1).
T1 construct: polyhistidine (pRSET-A vector leader) (N); made in house; host or cells: E. coli BL21 (DE3), pRSET-A vector
T1 sequence (Q96RI1 237-472 isoform Q96RI1-2): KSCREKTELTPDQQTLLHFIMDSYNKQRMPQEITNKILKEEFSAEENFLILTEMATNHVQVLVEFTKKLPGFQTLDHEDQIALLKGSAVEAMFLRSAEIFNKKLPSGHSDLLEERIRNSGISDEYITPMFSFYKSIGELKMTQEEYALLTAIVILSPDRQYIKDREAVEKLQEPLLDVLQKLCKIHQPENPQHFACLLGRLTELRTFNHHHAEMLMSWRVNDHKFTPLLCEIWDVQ
The assay can be described thus: FXR Cofactor Binding Assay (time resolved fluorescence, SRC-1 peptide recruitment). The settings on record: class symbols; read-out: Activity (pEC50) (converted). The class given is biochemical. From the text: Determination of a ligand mediated cofactor peptide interaction to quantify ligand binding to the nuclear receptor Farnesoid X Receptor (FXR). The method measures the ability of putative ligands to modulate the interaction between the purified bacterial expressed FXRα ligand binding domain (LBD) and a synthetic biotinylated peptide based on residues 676-700 of steroid receptor coactivator-1 (SRC-1) (LXXLL-containing domain-2 where L is the amino acid leucine and X indicates any other amino acid (LCD2), 676-700). The sequence of the SRC-1 peptide used is as published in Iannone, M. A., et al., 2001 Cytometry 44:326-337 where the N-terminus was biotinylated (B) and the C-terminus was amidated. Detection of the associated complex was measured by time resolved fluorescence (TRF). The purified LBD of FXR was labeled with biotin then mixed with stoichiometric amounts of allophycocyanin (APC) labeled streptavidin (Molecular Probes). The biotinylated peptide was then mixed with a ½ stoichiometric amount of europium labeled streptavidin (Wallac Inc). Each was then blocked with a 5 fold excess of biotin and allowed to equilibrate for 15 min. Equimolar amounts of receptor and peptide were mixed together and were allowed to equilibrate for at least 30 min prior to the addition to either a variable or constant concentrations of the sample for which the affinity is to be determined. After equilibration, the time-resolved fluorescent signal was quantitated using a fluorescent plate reader. The affinity of the test compound was estimated from a plot of fluorescence versus concentration of test compound added.
A basal level of FXR: peptide formation is observed in the absence of added ligand. Ligands that promote the complex formation induce a concentration-dependent increase in time-resolved fluorescent signal. Compounds which bind equally well to both monomeric FXR and to the FXR: peptide complex would be expected to give no change in signal, whereas ligands which bind preferentially to the monomeric receptor would be expected to induce a concentration-dependent decrease in the observed signal.
Advance Preparation: Human Farnesoid X Receptor α Ligand Binding Domain Human FXRα Ligand Binding Domain (FXRα LBD) was expressed in E. coli strain BL21 (DE3) as an amino-terminal polyhistidine tagged fusion protein. Expression was under the control of an isopropyl-β-D-thiogalactopyranoside (IPTG) inducible T7 promoter. DNA encoding this recombinant protein is subcloned into the pRSET-A expression vector (Invitrogen). The coding sequence of Human FXRα LBD was derived from Genbank accession number U 68233 (amino acids 237 to 472).
Ten-liter fermentation batches were grown in Rich PO4 media with 0.1 mg/mL Ampicillin at 25° C. for 12 hours, cooled to 9° C. and held at that temperature for 36 hours to a density of OD600=14. At this cell density, 0.25 mM IPTG is added and induction proceeded for 24 hours at 9° C., to a final OD600=16. Cells are harvested by centrifugation (20 minutes, 3500× gravity, 4° C.), and concentrated cell slurries were stored in phosphate buffered saline (PBS) at […].
Routinely, 30-40 g cell paste (equivalent to 2-3 liters of the fermentation batch) was resuspended in 200-250 mL Tris buffered saline (TBS), pH 7.2 (25 mM Tris-hydroxymethylamino methane (Tris), 150 mM sodium chloride). Cells were lysed by passing 3 times through a French Press and cell debris was removed by centrifugation (30 minutes, 20,000× gravity, 4° C.). The cleared supernatant was filtered through course pre-filters, and TBS, pH 7.2, 500 mM imidazole was added to obtain a final imidazole concentration of 50 mM. This lysate was loaded onto a column (6×8 cm) packed with Sepharose [Ni^++ charged] Chelation resin (Pharmacia) and pre-equilibrated with TBS pH 7.2/50 mM imidazole. After washing to baseline absorbance with equilibration buffer, the column was washed with one column volume of TBS pH 7.2 containing 90 mM imidazole. […]
`CC(C)c1onc(-c2c(Cl)cccc2Cl)c1COc1ccc(Nc2cccc3ccc(C(=O)O)cc23)cc1` [Example 18, 8-{[4-({[3-(2,6-Dichlorophenyl)-5-(1-methylethyl)-4-isoxazolyl]methyl}oxy)phenyl]amino}-2-naphthalenecarboxylic Acid]: the EC50 was 102 to 1000 nM.

With `CC(C)c1onc(-c2c(Cl)cccc2Cl)c1COc1ccc(-c2ccc3oc(C(=O)O)cc3c2)cc1` [Example 4, 5-[4-({[3-(2,6-Dichlorophenyl)-5-(1-methylethyl)-4-isoxazolyl]methyl}oxy)phenyl]-1-benzofuran-2-carboxylic Acid], the EC50 is less than 100 nM.

On to `CC(C)c1onc(-c2c(Cl)cccc2Cl)c1COc1ccc(-c2ccc3cc(C(=O)O)[nH]c3c2)cc1` [Example 5, 6-[4-({[3-(2,6-Dichlorophenyl)-5-(1-methylethyl)-4-isoxazolyl]methyl}oxy)phenyl]-1H-indole-2-carboxylic Acid], for which the EC50 is 102 to 1000 nM.

On to `CC(C)c1onc(-c2c(Cl)cccc2Cl)c1COc1ccc(Sc2cccc3sc(C(=O)O)cc23)cc1` [Example 19, 4-{[4-({[3-(2,6-Dichlorophenyl)-5-(1-methylethyl)-4-isoxazolyl]methyl}oxy)phenyl]thio}-1-benzothiophene-2-carboxylic Acid], for which the EC50 is 102 to 1000 nM.

With `CC(C)c1onc(-c2c(Cl)cccc2Cl)c1COc1ccc(-c2ccc3c(C(=O)O)c[nH]c3c2)cn1` [Example 13, 6-[6-({[3-(2,6-Dichlorophenyl)-5-(1-methylethyl)-4-isoxazolyl]methyl}oxy)-3-pyridinyl]-1H-indole-3-carboxylic Acid], the EC50 is 102 to 1000 nM.

For the compound `CC(C)c1onc(-c2c(Cl)cccc2Cl)c1COc1ccc(-c2ccc3[nH]c(C(=O)O)cc3c2)cc1` [Example 1, 5-[4-({[3-(2,6-Dichlorophenyl)-5-(1-methylethyl)-4-isoxazolyl]methyl}oxy)phenyl]-1H-indole-2-carboxylic Acid], the EC50 is less than 100 nM.

Consider `CC(C)c1onc(-c2c(Cl)cccc2Cl)c1COc1ccc(-c2ccc3c(c2)CCC3(O)C(=O)O)cc1` (stereo not drawn) [Example 7, 5-[4-({[3-(2,6-Dichlorophenyl)-5-(1-methylethyl)-4-isoxazolyl]methyl}oxy)phenyl]-1-hydroxy-2,3-dihydro-1H-indene-1-carboxylic Acid], for which the EC50 is 102 to 1000 nM.

Turning to `CC(C)c1onc(-c2c(Cl)cccc2Cl)c1COc1ccc(-c2ccc3c(C(=O)O)csc3c2)cc1` [Example 11, 6-[4-({[3-(2,6-Dichlorophenyl)-5-(1-methylethyl)-4-isoxazolyl]methyl}oxy)phenyl]-1-benzothiophene-3-carboxylic Acid], the EC50 is less than 100 nM.

In the case of `CC(C)c1onc(-c2c(Cl)cccc2Cl)c1COc1ccc(-c2ccc3oc(C(=O)O)cc(=O)c3c2)cc1` [Example 14, 6-[4-({[3-(2,6-Dichlorophenyl)-5-(1-methylethyl)-4-isoxazolyl]methyl}oxy)phenyl]-4-oxo-4H-chromene-2-carboxylic Acid], the EC50 was less than 100 nM.

`CC(C)c1onc(-c2c(Cl)cccc2Cl)c1COc1ccc(-c2ccc3c(C(=O)O)n[nH]c3c2)cc1` [Example 8, 6-[4-({[3-(2,6-Dichlorophenyl)-5-(1-methylethyl)-4-isoxazolyl]methyl}oxy)phenyl]-1H-indazole-3-carboxylic Acid]: the EC50 was 1020 to 10000 nM.

For the compound `CC(C)c1onc(-c2c(Cl)cccc2Cl)c1COc1ccc(-c2ccc3c(C(=O)O)cc(=O)oc3c2)cc1` [Example 15, 7-[4-({[3-(2,6-Dichlorophenyl)-5-(1-methylethyl)-4-isoxazolyl]methyl}oxy)phenyl]-2-oxo-2H-chromene-4-carboxylic Acid], the EC50 is 102 to 1000 nM.

For the compound `CC(C)c1onc(-c2c(Cl)cccc2Cl)c1COc1ccc(-c2csc3ccc(C(=O)O)cc23)cc1` [Example 9, 3-[4-({[3-(2,6-Dichlorophenyl)-5-(1-methylethyl)-4-isoxazolyl]methyl}oxy)phenyl]-1-benzothiophene-5-carboxylic Acid], the EC50 is 1020 to 10000 nM.

As for `CC(C)c1onc(-c2c(Cl)cccc2Cl)c1COc1ccc(-c2ccc3c(=O)cc(C(=O)O)oc3c2)cc1` [Example 16, 7-[4-({[3-(2,6-Dichlorophenyl)-5-(1-methylethyl)-4-isoxazolyl]methyl}oxy)phenyl]-4-oxo-4H-chromene-2-carboxylic Acid], the EC50 was 102 to 1000 nM.

Turning to `CC(C)c1onc(-c2c(Cl)cccc2Cl)c1COc1ccc(-c2ccc3c(c2)C(C(=O)O)CC3)cc1` (stereo not drawn) [Example 2, 6-[4-({[3-(2,6-Dichlorophenyl)-5-(1-methylethyl)-4-isoxazolyl]methyl}oxy)phenyl]-2,3-dihydro-1H-indene-1-carboxylic Acid], the EC50 was 102 to 1000 nM.

For `CC(C)c1onc(-c2c(Cl)cccc2Cl)c1COc1ccc(-c2ccc3c(c2)CCCC3C(=O)O)cc1` (stereo not drawn) [Example 17, 6-[4-({[3-(2,6-Dichlorophenyl)-5-(1-methylethyl)-4-isoxazolyl]methyl}oxy)phenyl]-1,2,3,4-tetrahydro-1-naphthalenecarboxylic Acid], the EC50 was 102 to 1000 nM.

With `CC(C)c1onc(-c2c(Cl)cccc2Cl)c1COc1ccc(-c2ccc3c(c2)CC(C(=O)O)C3)cc1` (stereo not drawn) [Example 6, 5-[4-({[3-(2,6-Dichlorophenyl)-5-(1-methylethyl)-4-isoxazolyl]methyl}oxy)phenyl]-2,3-dihydro-1H-indene-2-carboxylic Acid], the EC50 is 102 to 1000 nM.

Take `CC(C)c1onc(-c2c(Cl)cccc2Cl)c1COc1ccc(-c2ccc3sc(C(=O)O)cc3c2)cc1` [Example 12, 5-[4-({[3-(2,6-Dichlorophenyl)-5-(1-methylethyl)-4-isoxazolyl]methyl}oxy)phenyl]-1-benzothiophene-2-carboxylic Acid]: the EC50 was 102 to 1000 nM.

As to `CC(C)c1onc(-c2c(Cl)cccc2Cl)c1COc1ccc(-c2ccc3sc(C(=O)O)cc3n2)cc1` [Example 10, 5-[4-({[3-(2,6-Dichlorophenyl)-5-(1-methylethyl)-4-isoxazolyl]methyl}oxy)phenyl]thieno[3,2-b]pyridine-2-carboxylic Acid], the EC50 is 102 to 1000 nM.

On to `CC(C)c1onc(-c2c(Cl)cccc2Cl)c1COc1ccc(-c2ccc3c(C(=O)O)c[nH]c3c2)cc1` [Example 3, 6-[4-({[3-(2,6-Dichlorophenyl)-5-(1-methylethyl)-4-isoxazolyl]methyl}oxy)phenyl]-1H-indole-3-carboxylic Acid], for which the EC50 is less than 100 nM.

Consider `CC(C)c1onc(-c2c(Cl)cccc2Cl)c1COc1ccc(-c2nc3cccc(C(=O)O)c3[nH]2)cc1` [Example 21, 2-[4-({[3-(2,6-Dichlorophenyl)-5-(1-methylethyl)-4-isoxazolyl]methyl}oxy)phenyl]-1H-benzimidazole-4-carboxylic Acid], for which the EC50 was 1020 to 10000 nM.

The assay is the same for the next values; noted with them: given as numeric bound; read-out: Activity (pEC50) (converted).
As for `CCOC(=O)c1noc2cc(-c3ccc(OCc4c(-c5c(Cl)cccc5Cl)noc4C(C)C)cc3)ccc12` [Example 20, Ethyl 6-[4-({[3-(2,6-dichlorophenyl)-5-(1-methylethyl)-4-isoxazolyl]methyl}oxy)phenyl]-1,2-benzisoxazole-3-carboxylate], the EC50 was greater than 20000 nM.
